Like-named read-outs stand apart in the source and are kept apart here. Square brackets hold non-standard residues; d marks the D form. Ends that are not written are not given here. Peptide text beside a SMILES is read from it. Cit = NC(=O)NCCC[C@H](N)C(=O)O

The values that follow come from paper PMC5421785, “Citrullination only infrequently impacts peptide binding to HLA class II MHC” (PLoS ONE, 2017).

For assay [1], the target named is T1, HLA-DRB1*01:01 (Homo sapiens, UniProt P01903+P01911, A100R/D57E/F55L/F60I/F76Y/I96L/L162R/M171V/P40L/Q125E/R42F/V115G/Y59C).
T1 construct: EBV transformed homozygous cell lines were used as sources of MHC molecules; endogenous in cells; host or cells: EBV transformed homozygous cell lines
The assay can be described thus: HLA class II peptide binding, inhibition of radiolabeled peptide binding to purified MHC.

For assay [2], the target named is T2, HLA-DRB1*04:01 (Homo sapiens, UniProt P01903+P01911, A100K/A169T/F76Y/I96L/K127E/L162R/M171V/N62H/P40V/Q125Y/R42H/S133A/S149N/S66Y/V115G/V209L/W38E).
T2 construct: EBV transformed homozygous cell lines were used as sources of MHC molecules; endogenous in cells; host or cells: EBV transformed homozygous cell lines
The description is as above.

Setting [3] is: citrullinated 15-mer (X), purified MHC, inhibition of radiolabeled peptide binding, dash = IC50 >40,000 nM, read-out: DRB1*01:01 binding capacity, Cit peptide (IC50 nM).
Setting [4] is: citrullinated 15-mer (X), purified MHC, inhibition of radiolabeled peptide binding, dash = IC50 >40,000 nM, read-out: DRB1*04:01 binding capacity, Cit peptide (IC50 nM).
[5] abbreviates: read-out: DRB1*01:01 binding capacity, WT peptide (IC50 nM).
Where [6] appears, read: read-out: DRB1*04:01 binding capacity, WT peptide (IC50 nM).
[7] abbreviates: citrullinated 15-mer peptide (X = citrulline), purified HLA-DRB1*01:01, read-out: DRB1*01:01 binding capacity, Cit peptide (IC50 nM).
The mark [8] stands for this setting: citrullinated 15-mer peptide (X = citrulline), purified HLA-DRB1*04:01, read-out: DRB1*04:01 binding capacity, Cit peptide (IC50 nM).
Where [9] appears, read: wild-type (unmodified Arg) 15-mer peptide, purified HLA-DRB1*01:01, read-out: DRB1*01:01 binding capacity, WT peptide (IC50 nM).
Where [10] appears, read: wild-type (unmodified Arg) 15-mer peptide, purified HLA-DRB1*04:01, read-out: DRB1*04:01 binding capacity, WT peptide (IC50 nM).
Setting [11] is: citrullinated peptide as listed (X at Cit position), read-out: DRB1*01:01 binding capacity Cit peptide (IC50 nM).
Setting [12] is: citrullinated peptide as listed (X at Cit position), read-out: DRB1*04:01 binding capacity Cit peptide (IC50 nM).
Setting [13] is: ratio of WT IC50 to Cit IC50, >1 = citrullination increases binding.

As for `CC(C)C[C@H](NC(=O)[C@H](CC(N)=O)NC(=O)[C@H](CCCCN)NC(=O)[C@H](C)NC(=O)[C@H](C)NC(=O)[C@@H](NC(=O)[C@H](CO)NC(=O)[C@H](CCC(=O)O)NC(=O)[C@H](Cc1ccc(O)cc1)NC(=O)[C@H](CCC(N)=O)NC(=O)[C@H](CCC(N)=O)NC(=O)[C@H](CCCNC(N)=O)NC(=O)[C@@H](NC(=O)[C@@H](N)CC(=O)O)C(C)C)C(C)C)C(=O)N[C@@H](CCC(N)=O)C(=O)O` [DVXQQYESVAAKNLQ] (H-DV[Cit]QQYESVAAKNLQ-OH), the values for the IC50 in assay [1] (setting [3]) and in assay [2] (setting [4]) were 19 nM and 7760 nM, respectively.

Consider `CC(C)C[C@H](NC(=O)[C@H](CCC(=O)O)NC(=O)[C@H](C)NC(=O)[C@H](CC(C)C)NC(=O)[C@@H](N)CC(C)C)C(=O)N[C@@H](CCC(=O)O)C(=O)N[C@@H](CCC(N)=O)C(=O)N[C@@H](CC(C)C)C(=O)N[C@@H](CCCCN)C(=O)NCC(=O)N[C@@H](CCC(N)=O)C(=O)NCC(=O)N[C@@H](CCCCN)C(=O)N[C@@H](CO)C(=O)N[C@@H](CCCNC(N)=O)C(=O)O` [LLAELEQLKGQGKSX] (H-LLAELEQLKGQGKS[Cit]-OH), for which the IC50 was 428 nM in assay [1] (setting [3]) and greater than 40000 nM in assay [2] (setting [4]).

Turning to SSRSYVTTSTRTYSL [Vimentin 26 WT], the IC50 stood at 70 nM in assay [1] (setting [5]) and 245 nM in assay [2] (setting [6]).

In the case of `CC(C)C[C@H](NC(=O)CNC(=O)[C@H](CCC(N)=O)NC(=O)[C@H](C)NC(=O)CN)C(=O)N[C@@H](CCC(N)=O)C(=O)NCC(=O)N1CCC[C@H]1C(=O)N[C@@H](CCCNC(N)=O)C(=O)NCC(=O)N[C@@H](CC(C)C)C(=O)N1CCC[C@H]1C(=O)NCC(=O)N[C@H](C(=O)N1CCC[C@H]1C(=O)O)[C@@H](C)O` [GAQGLQGPXGLPGTP] (H-GAQGLQGP[Cit]GLPGTP-OH), the IC50 in assay [1] (setting [7]) was 578 nM; in assay [2] (setting [8]) it was greater than 40000 nM.

On to ASRPSSSRSYVTTST [Vimentin 21 WT], for which the IC50 came out at 7580 nM in assay [1] (setting [5]) and 1030 nM in assay [2] (setting [6]).

For FAVEAANYQDTIGRL [Vimentin 351 WT], the IC50 in assay [1] (setting [9]) was determined as 611 nM; in assay [2] (setting [10]), 564 nM.

Take MSTRSVSSSSYRRMF [Vimentin 1 WT]: the 50% inhibitory concentration (IC50) amounted to 408 nM in assay [1] (setting [5]) and 491 nM in assay [2] (setting [6]).

On to `CSCC[C@H](NC(=O)[C@H](CCC(=O)O)NC(=O)[C@H](CCCNC(N)=O)NC(=O)[C@H](CCSC)NC(=O)[C@H](CCC(N)=O)NC(=O)[C@H](CCCNC(=N)N)NC(=O)[C@@H](N)CCC(=O)O)C(=O)N[C@@H](CCC(=O)O)C(=O)N[C@@H](CCC(=O)O)C(=O)N[C@@H](CC(N)=O)C(=O)N[C@@H](Cc1ccccc1)C(=O)N[C@@H](C)C(=O)N[C@H](C(=O)N[C@@H](CCC(=O)O)C(=O)N[C@@H](C)C(=O)O)C(C)C` [ERQMXEMEENFAVEA] (H-ERQM[Cit]EMEENFAVEA-OH), for which the IC50 in assay [1] (setting [7]) turned out to be 9530 nM; in assay [2] (setting [8]) it was 3220 nM.

Regarding GHRGFTGLQGLPGPP [Collagen 1131 WT], the results for the IC50 in assay [1] (setting [9]) and in assay [2] (setting [10]) were 0.77 nM and 335 nM, respectively.

As to `CC(C)C[C@H](NC(=O)[C@H](CO)NC(=O)[C@H](C)NC(=O)[C@H](CC(N)=O)NC(=O)[C@@H](N)CC(=O)O)C(=O)N[C@@H](C)C(=O)N[C@@H](CCCNC(=N)N)C(=O)N[C@@H](CC(C)C)C(=O)N[C@@H](CC(=O)O)C(=O)N[C@@H](CC(C)C)C(=O)N[C@@H](CCC(=O)O)C(=O)N[C@@H](CCCNC(N)=O)C(=O)N[C@@H](CCCCN)C(=O)N[C@H](C(=O)N[C@@H](CCC(=O)O)C(=O)O)C(C)C` [DNASLARLDLEXKVE] (H-DNASLARLDLE[Cit]KVE-OH), the IC50 is 10900 nM in assay [1] (setting [3]) and greater than 40000 nM in assay [2] (setting [4]).

As to `CC[C@H](C)[C@H](NC(=O)CN)C(=O)N[C@H](C(=O)NCC(=O)N[C@@H](CC(C)C)C(=O)N1CCC[C@H]1C(=O)NCC(=O)N[C@@H](CCC(N)=O)C(=O)N[C@@H](CCCNC(N)=O)C(=O)NCC(=O)N[C@@H](CCC(=O)O)C(=O)N[C@@H](CCCNC(=N)N)C(=O)NCC(=O)N[C@@H](Cc1ccccc1)C(=O)N1CCC[C@H]1C(=O)O)C(C)C` [GIVGLPGQXGERGFP] (H-GIVGLPGQ[Cit]GERGFP-OH), the IC50 was 3.6 nM in assay [1] (setting [7]) and 2050 nM in assay [2] (setting [8]).

Turning to LVAAVLRCQGQDVQE [Collagen 16 WT], the IC50 was 21 nM in assay [1] (setting [9]) and 4730 nM in assay [2] (setting [10]).

FRQDVDNASLARLDL [Vimentin 206 WT]: the figures for the IC50 in assay [1] (setting [5]) and in assay [2] (setting [6]) were 5260 nM and 144 nM, respectively.

Regarding `CC[C@H](C)[C@H](NC(=O)[C@H](CC(N)=O)NC(=O)[C@H](CCC(N)=O)NC(=O)[C@H](CO)NC(=O)CNC(=O)[C@H](CCC(=O)O)NC(=O)[C@@H](NC(=O)[C@H](CO)NC(=O)[C@H](CC(C)C)NC(=O)[C@H](CC(C)C)NC(=O)[C@H](CCCNC(N)=O)NC(=O)[C@H](CC(C)C)NC(=O)[C@H](Cc1ccccc1)NC(=O)[C@@H](N)[C@@H](C)O)[C@@H](C)O)C(=O)N[C@H](C(=O)O)[C@@H](C)O` [TFLXLLSTEGSQNIT] (H-TFL[Cit]LLSTEGSQNIT-OH), the IC50 was 5.6 nM in assay [1] (setting [11]) and 55 nM in assay [2] (setting [12]).

Regarding `CC[C@H](C)[C@H](NC(=O)[C@H](Cc1ccc(O)cc1)NC(=O)[C@H](CC(N)=O)NC(=O)[C@H](C)NC(=O)[C@H](Cc1ccccc1)NC(=O)[C@H](CCCNC(N)=O)NC(=O)[C@H](CC(=O)O)NC(=O)[C@H](CC(N)=O)NC(=O)[C@H](CC(C)C)NC(=O)[C@H](CCC(=O)O)NC(=O)[C@H](CCC(N)=O)NC(=O)[C@H](CC(C)C)NC(=O)[C@@H](N)CCC(=O)O)C(=O)N[C@@H](CC(=O)O)C(=O)N[C@@H](CCCCN)C(=O)O` [ELQELNDXFANYIDK], the figures for the IC50 in assay [1] (setting [3]) and in assay [2] (setting [4]) were 295 nM and 26700 nM, respectively.

With `CC[C@H](C)[C@H](NC(=O)[C@H](CCCCN)NC(=O)[C@H](CC(N)=O)NC(=O)[C@H](CCC(N)=O)NC(=O)[C@H](CCC(N)=O)NC(=O)[C@H](CCC(=O)O)NC(=O)[C@H](CC(C)C)NC(=O)[C@H](Cc1ccccc1)NC(=O)[C@H](CCCNC(N)=O)NC(=O)[C@@H](NC(=O)[C@H](CCCCN)NC(=O)[C@H](CC(=O)O)NC(=O)[C@@H](NC(=O)[C@H](Cc1ccc(O)cc1)NC(=O)[C@@H](N)CC(N)=O)[C@@H](C)CC)C(C)C)C(=O)O` [NYIDKVXFLEQQNKI] (H-NYIDKV[Cit]FLEQQNKI-OH), the values for the IC50 in assay [1] (setting [3]) and in assay [2] (setting [4]) were 102 nM and 1210 nM, respectively.

`CSCC[C@H](NC(=O)[C@H](Cc1ccc(O)cc1)NC(=O)[C@H](CCC(N)=O)NC(=O)[C@H](CC(C)C)NC(=O)[C@@H]1CCCN1C(=O)[C@H](CC(=O)O)NC(=O)[C@@H]1CCCN1C(=O)CNC(=O)[C@@H](N)CCCCN)C(=O)N[C@@H](CCCNC(N)=O)C(=O)N[C@@H](C)C(=O)N[C@@H](CC(=O)O)C(=O)N[C@@H](CCC(N)=O)C(=O)N[C@@H](C)C(=O)N[C@@H](C)C(=O)O` [KGPDPLQYMXADQAA] (H-KGPDPLQYM[Cit]ADQAA-OH): the IC50 in assay [1] (setting [11]) is 9.2 nM; in assay [2] (setting [12]) it was 45 nM.

Consider `CC(C)C[C@H](NC(=O)[C@H](C)NC(=O)[C@H](CC(=O)O)NC(=O)[C@@H](NC(=O)[C@H](CCC(=O)O)NC(=O)[C@H](CS)NC(=O)[C@@H](NC(=O)[C@H](CC(C)C)NC(=O)[C@H](CO)NC(=O)[C@H](CCC(N)=O)NC(=O)[C@@H](NC(=O)[C@H](CCC(N)=O)NC(=O)[C@@H](N)CCCNC(N)=O)C(C)C)[C@@H](C)O)C(C)C)C(=O)N[C@@H](CCCCN)C(=O)NCC(=O)O` [XQVQSLTCEVDALKG] (H-[Cit]QVQSLTCEVDALKG-OH), for which the IC50 in assay [1] (setting [7]) turned out to be 5110 nM; in assay [2] (setting [8]), 15500 nM.

For the compound AGEPGERGLKGHRGF [Collagen 1121 WT], the values for the IC50 in assay [1] (setting [9]) and in assay [2] (setting [10]) were 85 nM and greater than 40000 nM, respectively.

Regarding `CC[C@H](C)[C@H](NC(=O)[C@H](CC(C)C)NC(=O)[C@H](CC(C)C)NC(=O)[C@@H](NC(=O)[C@H](CCCNC(N)=O)NC(=O)[C@H](CCCCN)NC(=O)[C@H](CO)NC(=O)[C@H](Cc1c[nH]cn1)NC(=O)[C@@H](NC(=O)[C@H](CC(=O)O)NC(=O)[C@@H](NC(=O)[C@H](CC(C)C)NC(=O)[C@@H]1CCCN1C(=O)[C@@H](N)CC(C)C)C(C)C)[C@@H](C)O)[C@@H](C)O)C(=O)N[C@@H](CCCCN)C(=O)O` [LPLVDTHSKXTLLIK] (H-LPLVDTHSK[Cit]TLLIK-OH), the IC50 in assay [1] (setting [7]) worked out at 344 nM; in assay [2] (setting [8]) it was 2590 nM.

For the compound `C[C@H](NC(=O)CNC(=O)[C@H](C)NC(=O)[C@H](CCC(=O)O)NC(=O)CNC(=O)[C@H](CCCNC(N)=O)NC(=O)[C@H](CC(=O)O)NC(=O)CNC(=O)[C@H](CCC(N)=O)NC(=O)[C@H](CCCCN)NC(=O)CNC(=O)[C@@H](NC(=O)[C@@H]1CCCN1)[C@@H](C)O)C(=O)N[C@@H](CCC(N)=O)C(=O)NCC(=O)O` [PTGKQGDXGEAGAQG] (H-PTGKQGD[Cit]GEAGAQG-OH; N-terminus and C-terminus assumed), the IC50 in assay [1] (setting [7]) and in assay [2] (setting [8]) was greater than 40000 nM each time. Besides, in assay [1] (setting [13]), the “DRB1*01:01 binding capacity, WT/cit ratio” value was found to be 0.6. Further, the “DRB1*04:01 binding capacity, WT/cit ratio” value in assay [2] (setting [13]) is 1.0.
